Experiments:
Experiment in all cases: Example B2 herbicidal action, post-emergence, pots in glasshouse, damage score 0-10
Type in all cases: in vivo
Conditions in all cases: application post-emergence, rate 1000 g/ha, evaluated after 13 days
Amaranthus retroflexus = tested on: Amaranthus retroflexus
Outline: (§1)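 Evaluation took place 13 days post-spray. Treatment used an acetone/water (50:50), 0.5% Tween 20 formulation applied to 8-day-old potted plants, held at 24/16 °C with 14 h light, 65% humidity and twice-daily watering.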

Setaria faberi = tested on: Setaria faberi
Outline: as §1

Echinochloa crus-galli = tested on: Echinochloa crus-galli
Outline: as §1

Solanum nigrum = tested on: Solanum nigrum
Outline: as §1

Ipomea hederaceae = tested on: Ipomea hederaceae
Outline: as §1

Structure (SMILES) | AMARE damage score (10=total damage to plant; 0=no damage to plant) (Amaranthus retroflexus) | SETFA damage score (10=total damage to plant; 0=no damage to plant) (Setaria faberi) | ECHCG damage score (10=total damage to plant; 0=no damage to plant) (Echinochloa crus-galli) | SOLNI damage score (10=total damage to plant; 0=no damage to plant) (Solanum nigrum) | IPOHE damage score (10=total damage to plant; 0=no damage to plant) (Ipomea hederaceae)
CC(C)(C)C(=O)OC1=C(c2c(F)ccc(-c3cccc(Cl)c3)c2Cl)S(=O)(=O)N(CC(F)F)c2nccnc21 [Compound C42, 2,2-dimethylpropionic acid-3-(2,3′-dichloro-4-fluoro-biphenyl-3-yl)-1-(2,2-difluoroethyl)-2,2-dioxo-1,2-dihydro-2-λ-6-thia-1,5,8-triaza-naphthalen-4-yl ester] | 2 | 2 | 2 | 3 | 4
CC(C)(C)C(=O)OC1=C(c2ccccc2OC(F)(F)F)S(=O)(=O)N(CC(F)F)c2nccnc21 [Compound C21] | 7 | 4 | 6 | 10 | 9
COCN1c2nccnc2C(OC(=O)C(C)(C)C)=C(c2ccccc2SC(F)(F)F)S1(=O)=O [Compound C23] | 5 | 3 | 4 | 6 | 4
CC(C)C(=O)OC1=C(c2cc(C(F)(F)F)ccc2Cl)S(=O)(=O)N(CC(Cl)Cl)c2nccnc21 [Compound C115] | 8 | 5 | 1 | 9 | 6
CC(C)C(=O)OC1=C(c2ccccc2OC(F)(F)F)S(=O)(=O)N(CC(F)F)c2nccnc21 [Compound C22] | 10 | 4 | 7 | 10 | 9
CCOC(=O)OC1=C(c2cc(C)ccc2C(F)(F)F)S(=O)(=O)N(CC(F)F)c2nccnc21 [Compound C147, carbonic acid 1-(2,2-difluoro-ethyl)-3-(5-methyl-2-trifluoromethyl-phenyl)-2,2-dioxo-1,2-dihydro-2-λ-6-thia-1,5,8-triaza-naphthalen-4-yl ester ethyl ester] | 1 | 3 | 2 | 9 | 9
O=S1(=O)C(c2ccccc2C(F)(F)F)=C(O)c2nccnc2N1CC(F)F [Compound D31] | 10 | 9 | 9 | 10 | 10
CC(C)C(=O)OC1=C(c2c(C(F)(F)F)cccc2C(F)(F)F)S(=O)(=O)N(CC(F)F)c2nccnc21 [Compound C79] | 9 | 6 | 7 | 9 | 9
C=CCN1c2nccnc2C(OC(=O)C(C)(C)C)=C(c2cc(Cl)ccc2C(F)(F)F)S1(=O)=O [Compound C118] | 6 | 4 | 5 | 8 | 4
CSC(=O)OC1=C(c2c(Cl)cccc2C(F)(F)F)S(=O)(=O)N(CC(F)F)c2nccnc21 [Compound C129] | 10 | 9 | 9 | 10 | 9
CCN1c2nccnc2C(OC(=O)C(C)(C)C)=C(c2c(Cl)cccc2C(F)(F)F)S1(=O)=O [Compound C17] | 8 | 4 | 5 | 9 | 7
O=S1(=O)C(c2cc(I)ccc2Cl)=C(O)c2nccnc2N1CC(F)F [Compound D29] | 5 | 3 | 2 | 7 | 7
CCN1c2nccnc2C(O)=C(c2c(Cl)ccc(Cl)c2Cl)S1(=O)=O [Compound D36] | 10 | 2 | 6 | 10 | 10
CCSC(=O)OC1=C(c2cc(Cl)ccc2C(F)(F)F)S(=O)(=O)N(CC(F)F)c2nccnc21 [Compound C112] | 10 | 6 | 6 | 10 | 9
O=[N+]([O-])c1ccccc1C1=C(O)c2nccnc2N(CC(F)F)S1(=O)=O [Compound D32] | 5 | 1 | 0 | 6 | 5
CC(C)C(=O)OC1=C(c2ccccc2C(F)(F)F)S(=O)(=O)N(CCCl)c2nccnc21 [Compound C121] | 0 | 2 | 0 | 5 | 1
CC(C)C(=O)OC1=C(c2ccc(Cl)cc2Cl)S(=O)(=O)N(CC(F)(F)F)c2nccnc21 [Compound C57] | 10 | 3 | 4 | 10 | 10
CCN1c2nccnc2C(O)=C(c2c(F)ccc(Cl)c2Cl)S1(=O)=O [Compound D4] | 8 | 2 | 4 | 10 | 10
CCN1c2nccnc2C(OC(=O)C(C)(C)C)=C(c2cc(C(F)(F)F)ccc2Cl)S1(=O)=O [Compound C33] | 1 | 0 | 0 | 6 | 5
Cc1ccc(C(F)(F)F)c(C2=C(OC(=O)C(C)C)c3nccnc3N(CC(F)F)S2(=O)=O)c1 [Compound C146] | 8 | 2 | 4 | 7 | 9
O=S1(=O)C(c2c(F)ccc(Br)c2Cl)=C(O)c2nccnc2N1CC(F)F [Compound D14] | 9 | 5 | 7 | 9 | 9

— patent US8133849B2, “Herbicidal compounds” (Syngenta Limited, priority 2007, dated 2012)
